{"source": "patent US4435404A", "about": "“Carbostyril derivatives” (priority 1980, dated 1984)", "key": {"[1]": {"system": "collagen-induced aggregation in rabbit platelet", "assay": "Inhibition effect on collagen-induced aggregation in rabbit platelet", "format": "cell-based", "conditions": "Oryctolagus cuniculus, Platelet, read-out: Inhibition effect on collagen-induced aggregation", "procedure,_shortened": "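Citrated rabbit PRP was diluted with PPP to 300,000 platelets/mm^3 for the ADP test or 450,000/mm^3 for the collagen test. Samples were preincubated with compound for 1 min at 37 °C before adding inducer: ADP solution at 7.5×10^-5 M (stock) or collagen supernatant. Light-transmittance aggregation was recorded at 1,100 rpm stirring, and percent inhibition was calculated against control aggregation rate, with acetylsalicylic acid as reference.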"}, "[2]": {"system": "arterial papillary muscle", "assay": "Positive inotropic effect, blood-perfused arterial papillary muscle", "parameters": "species or system dog", "conditions": "Canis lupus familiaris, into septal artery, read-out: Increasing of inotropic", "protocol": "Positive inotropic effects of the novel carbostyril derivatives of the present invention were tested according to a method described by M. Endoh and K. Hashimoto, in \"American Journal of Physiology\", Vol. 218, No. 5, May, 1970, pages 1459-1463 as follows:\nAdult bastard dogs of both sexes, weighing 8-12 kg, were anesthetized with pentobarbital-Na at a rate of 30 mg/kg by intraveneous administration. After another intraveneous administration of sodium heparin, 1,000 μ/kg, the test dog was sacrificed by blood letting. The heart of the dog was excised and immediately plunged into Locke's solution, then the arterial papillary muscle was excised out with interventicular septum. The septal artery was carefully isolated and cannulated with a polyethylene cannula and was ligated with thread. Septal arteries those of connected to other than the arterial papillary muscle were ligated with thread. Next, the donor adult bastard dogs, weighing 18-27 kg, were anesthetized with pentabarbital-Na (30 mg/kg, intraveneous injection), and further treated with intravenous administration of sodium heparin (1,000 μ/kg). The arterial papillary muscle was perfused through the septal artery being cannulated with the polyethylene cannula with the blood conducted from the carotid artery of the donor dog by aid of Peristaric pump. The perfusion pressure was maintained at 100 mmHg constantly. Then the muscle was electrically stimulated by an electronic stimulator through bipolar electrodes in contact with the interventicular septum. The strength of stimulation was 2 X (the minimum value for appearing the action), frequency 2 Hz, pulse duration 2 msec.\nThe isometric contraction generated was measured through a force-displacement transducer. The amount of blood flow in the coronary arteries was measured by determining the amount of the blood flow conducted to the septal artery by electromagnetic flow meter. All the data were recorded on an ink-writing recorder.\nA solution containing a compound to be tested was injected into the septal artery through the rubber tube connected close to the shunk of the polyethylene cannula, in an amount of 10-30 μl.\nThe results obtained is shown in Table 4, in which the increasement (%) of contraction is indicated as the ratio of the contractions before and after the administration (injection) of the solution containing the test compound."}, "Acute Toxicity Test": {"assay": "Acute Toxicity Test", "conditions": "mouse, in vivo; male mice, oral administration", "protocol": "The test compounds were administered orally to the mice and LD50 (mg/kg) of the compounds was determined."}}, "data": [{"molecule": "O=C(CCCOc1ccc2[nH]c(=O)ccc2c1)N(CCO)C1CCCCC1", "note": "[No. 1, 6-{3-[N-(2-hydroxyethyl)-N-cyclohexylaminocarbonyl]propoxy}carbostyril]", "values": [{"measurement": "inhibition at 10 µM", "setting": "[1]; concentration of the test compound solution 10^-5 mole", "result": 100, "unit": "%"}, {"measurement": "inhibition at 1 µM", "setting": "[1]; concentration of the test compound solution 10^-6 mole", "result": 100, "unit": "%"}, {"measurement": "inhibition at 0.1 µM", "setting": "[1]; concentration of the test compound solution 10^-7 mole", "result": 60.1, "unit": "%"}, {"measurement": "activation at 3 nmol", "setting": "[2]; dosage 3 n mol", "result": 8.2, "unit": "%"}, {"measurement": "activation at 30 nmol", "setting": "[2]; dosage 30 n mol", "result": 54.5, "unit": "%"}, {"measurement": "LD50", "setting": "Acute Toxicity Test", "result": "> 1000", "unit": "mg/kg"}]}]}
